According to the supplement of paper PMC10011410:
± gives the standard deviation of the averaged measurements.

Legend:
U-2 OS [1] = test: relative cell count vs DMSO (cell painting) (fraction of DMSO control); higher = more cells remaining (less cytotoxic); settings: 24 h
Method in brief: (§1)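 Cell painting used U-2 OS cells at about 1,500 per well in 384-well plates, treated by pin tool for 24 h at 37 °C, usually at six 2-fold concentrations from 20 μM to 625 nM. Cells were stained with MitoTracker, concanavalin A, phalloidin, wheat germ agglutinin, Hoechst and SYTO 14 and imaged on an Opera Phenix. Features were extracted with CellProfiler and normalized to DMSO cells on the same plate. The activity score is the Mahalanobis distance from DMSO wells; cell count is relative to DMSO wells. Values are means of four replicate plates.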

U-2 OS [2] = test: cell painting activity score (Mahalanobis distance from DMSO wells); higher = stronger morphological phenotype; settings: 24 h
Method in brief: as §1

U-2 OS [3] = test: AUC of culture confluence over time (live-cell imaging) (AUC (confluence % x time)); higher = more confluent culture (less growth inhibition)
Method in brief: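 Confluence of U-2 OS cells in F-12K medium with 10% FBS was tracked by live-cell imaging. Cells were seeded at 750 per well in 384-well plates and treated 24 h later by pin tool, with most compounds at 20, 10 and 5 μM and 0.2% DMSO. Cells were kept at 37 °C and imaged every 4 h for up to 60 h on an Incucyte S3 with a 10x objective. The value is the area under the confluence-versus-time curve.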

U-2 OS [4] = test: total intracellular glutathione (GSH + GSSG) relative to DMSO (% of control); higher = more glutathione; settings: 24 h
Protocol: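 Total intracellular glutathione (GSH + GSSG) in U-2 OS cells by GSH/GSSG-Glo after 24 h compound treatment at 5, 10 and 20 uM (some at 40 and 80 uM), as percent of DMSO control. Five technical replicate plates, averaged.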

U-2 OS [5] = test: cell viability (CellTiter-Glo) relative to DMSO (% of control); higher = more viable; settings: 24 h
Protocol: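 Cell viability of U-2 OS cells by CellTiter-Glo after 24 h compound treatment at 5, 10 and 20 uM (some at 40 and 80 uM), measured in parallel with the glutathione assay, as percent of DMSO control. Five technical replicate plates, averaged.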

U-2 OS [6] = test: intracellular GSH:GSSG ratio (calculated); higher = more reduced glutathione pool; settings: 24 h
Protocol: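 Intracellular glutathione in U-2 OS cells after 24 h compound treatment at 5, 10 and 20 uM (some at 40 and 80 uM). Total glutathione and GSSG were measured with the GSH/GSSG-Glo kit, and the GSH:GSSG ratio was calculated. Mean of five technical replicate plates.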

Compound	relative cell count (U-2 OS [1]; 0.625 µM)	relative cell count (U-2 OS [1]; 1.25 µM)	relative cell count (U-2 OS [1]; 2.5 µM)	relative cell count (U-2 OS [1]; 5 µM)	relative cell count (U-2 OS [1]; 10 µM)	relative cell count (U-2 OS [1]; 20 µM)	cell painting activity score (U-2 OS [2]; 0.625 µM)	cell painting activity score (U-2 OS [2]; 1.25 µM)	cell painting activity score (U-2 OS [2]; 2.5 µM)	cell painting activity score (U-2 OS [2]; 5 µM)	cell painting activity score (U-2 OS [2]; 10 µM)	cell painting activity score (U-2 OS [2]; 20 µM)	AUC of culture confluence over time (U-2 OS [3]; 5 µM)	AUC of culture confluence over time (U-2 OS [3]; 10 µM)	AUC of culture confluence over time (U-2 OS [3]; 20 µM)	total intracellular glutathione (U-2 OS [4]; 5 µM)	total intracellular glutathione (U-2 OS [4]; 10 µM)	total intracellular glutathione (U-2 OS [4]; 20 µM)	cell viability (U-2 OS [5]; 5 µM)	cell viability (U-2 OS [5]; 10 µM)	cell viability (U-2 OS [5]; 20 µM)	intracellular GSH:GSSG ratio (U-2 OS [6]; 5 µM)	intracellular GSH:GSSG ratio (U-2 OS [6]; 10 µM)	intracellular GSH:GSSG ratio (U-2 OS [6]; 20 µM)
CNC(=O)Nc1ccc2c(c1)CC[C@@]21OC(=O)N(CC(=O)N(Cc2ccc(F)cc2)[C@@H](C)C(F)(F)F)C1=O	1.04	0.976	1.04	1.02	1.05	1	8.32	8.2	8.22	8.54	9.44	10.2	44.7	44	42.6	81.7 ± 3.5	74.9 ± 6.2	79 ± 7.5	93.1 ± 1.9	83.6 ± 4.3	85.3 ± 5	27.9	31.4	30.9
O=S1(=O)C=C(Sc2nn(-c3ccccc3)c(=S)s2)c2ccccc21	0.875	0.647	0.35	0.223	0.247	0.259	11.4	11.7	19.6	17.8	20.4	18.2	17.7	15.9	16.3	65 ± 9.1	43.8 ± 9	29.2 ± 4.9	38.8 ± 8.9	30.5 ± 2.7	36.6 ± 8.1	11.7	7.07	2.96
COC(=O)[C@]1(C)CC[C@]2(C)CC[C@]3(C)C4=CC=C5C(=CC(=O)C(O)=C5C)[C@]4(C)CC[C@@]3(C)[C@@H]2C1	0.0681	0.0621	0.0626	0.0644	0.0539	0.117	24.2	33.5	32.8	33.4	33.5	27.7	11.3	11.9	14.2	9.07 ± 0.87	4.42 ± 1.3	3.06 ± 0.32	5.12 ± 0.81	1.29 ± 0.58	0.733 ± 0.056	0.695	0.536	
Cc1cc(-c2ccccc2)cc(C(=O)NNS(=O)(=O)c2ccccc2)c1F	0.914	0.965	0.931	0.965	0.952	0.966	6.33	7.18	6.97	6.92	8.27	8.87	52.8	51.6	46.7	124 ± 13	109 ± 5.4	110 ± 4.2	109 ± 6	101 ± 7.7	98.9 ± 2.5	37	26	29
